Test results taken from patent US6812214B2, “Use of harpagid-related compounds for prevention and treatment of osteoporosis, arthritis and ruptured disc and pharmaceutical composition containing the same” (priority 2000, dated 2004).
Entries after “also recorded” stand apart in the source; their conditions may differ.

Columns and labels:
[1] = test system: Raw 264.7 cell lines; assay: Effect on cell cycle of macrophage cells (flow cytometry); format: cell-based; details: 20 μg/ml, LPS 50 ng/ml, propidium iodide flow cytometry
Description: (§1) Two kinds of cells were incubated as in Experiment 6 and then washed with PBS (phosphate-buffered saline). LPS was distributed on the respective dishes at the concentration of 50 ng/ml to stimulate the cells. Then, the extract according to the present invention was added over 2 hours so as to make the final concentration of 20 μg/ml. The supernatant was removed, washed with PBS and then treated with trypsin. The cells were harvested, introduced into Eppendorf tube and then centrifuged at 1,000 rpm for 5 minutes to remove the supernatant. The residue was fixed with addition of 1 ml of 100% ethanol. At this time, the mixture of 5 μg/ml propidium iodide and RNAse was separately prepared. The fixed cells were centrifuged to remove the supernatant and then washed once with PBS. Simultaneously, the staining agent as previously prepared above was added to the fixed cells and then warmed in an incubator at 37° C. for 30 minutes. The cells stained with propidium iodide was sealed with foil, stored at 4° C. and then subjected to a flow cytometry analysis using FACscan (Becton Dickinson, Calif.) as the analyzing apparatus.

[2] = test system: Raw 264.7 cell lines; assay: Induction of apoptosis of macrophages; format: cell-based; details: Raw 264.7 cells; 10 μg/ml, 24 hours
Description: (§2) In order to determine whether the compound identified as the effective component of the pharmaceutical composition separated according to the present invention can induce the apoptosis of Raw 264.7 cell lines as macrophage involved in inflammatory reaction and synovial cells, the cells were distributed on 5% DMEM medium supplemented with penicillin/streptomycin in a 6-well culture dish at the concentration of 10^4 cells and then incubated at 37° C. for 24 hours while adding the extractions as above at the concentration of 10 μg/ml to observe the reaction. Apoptosis was examined by taking a photograph of apoptosis-induced cells under a polarizing microscope of 200 magnifications.

[3] = test system: synovial cells; assay: Induction of apoptosis of synovial cell lines; format: cell-based, human; details: 10 μg/ml, 24 hours
Description: The synovial cells separated from outpatients suffering from rheumatoid arthritis were distributed on 5% DMEM medium supplemented with penicillin/streptomycin in a 6-well culture dish at the concentration of 10^4 cells and then incubated for 24 hours at 37° C. to observe the surviving cells. In order to determine the presence or absence of cells and the proliferating state of cells, apoptosis-induced cells were examined by taking their photographs under a phase-contrast microscope of 200 magnifications.
as §2

[4] = test system: edema-induced albino rats; assay: Inhibitory effect on edema of arthritis (Zymosan-A / Freund's adjuvant induced paw edema); format: in vivo; details: for inhibitory effect on edema: in words, after 70 days
Description: In order to observe the inhibitory effect on edema of the pharmaceutical composition of the present invention, 6 albino rats weighing 200 g were used per test group to induce edema by injecting the mixture of 0.5 ml of Zymosan-A (20 mg/ml/kg) and 0.5 ml of Freund's adjuvant into ST36 position of left paw and then observed for the progress of edema for 70 days by taking a photograph before and after induction of edema. The water extract and organic solvent fractions of the pharmaceutical composition of the present invention were respectively constituted in the concentration of 0.6 mg/ml and then orally administered for 14 days to albino rats in an amount of 1 ml per kg of body weight once a day to determine the inhibitory effect on edema. As the test sample, the organic solvent fractions of the pharmaceutical composition including ABE, ABB, ABW, CBE, CBB, CBW, LNE, LNB, LNW, CRB, CRW, SSH and SSW were respectively used. As the result of this test, it was observed that edema was started to induce on day 4 and reached the peak point after about 45 days. The period for this test was established as 70 days after edema induction to observe the inhibitory effect on edema of the extracts of the present invention. As the result, the edema size was measured using a precision gauge.

[5] = test system: COX-II; assay: Inhibition of COX-II expression at the level of transcription through RT-PCR; format: cell-based
Description: In order to identify the ingredient having an inhibitory activity against COX-II and inducible nitric oxide synthetase (iNOS) as the causal factors of rheumatoid arthritis in the extract used as the effective component of the pharmaceutical composition according to the present invention as in Experiment 6 above, the cells were distributed in T75 flask at the concentration of 10^5 cells, incubated for 7 days and then stimulated for 2 hours by introducing LPS in the flask at the concentration of 50 ng/ml. Then, the extract of the present invention was added so as to make the final concentration of 50 μg/ml. The cells were harvested into a 1.5 ml Eppendorf tube and centrifuged with 15,000 rpm at 4° C. for 15 minutes to remove the supernatant. 200 μl of RNAzol solution was added to the residue followed by addition of 50 μl of chloroform. The cells were lysed by careful pippeting, and then centrifuged with 15,000 rpm at 4° C. for 15 minutes to recover a total RNA, which was then precipitated at 4° C. for 15 minutes by adding the same volume of isopropanol, washed once with 75% ethanol and then dried. The cell lysate was dissolved by adding 20 μl of […] and then warming the mixture at 60° C. for 30 minutes. Then, reverse transcriptase reaction was conducted at 50° C. for 20 minutes by adding 5 μl of 10 mM dNTP, 6 μl of 25 mM MgCl2, 5 μl of 10× RNA PCR buffer, 1 μl of RNase inhibitor, 1 μl of AMV-optimized Taq, 1 μl of AMV reverse transcriptase XL, 1 μl of 50 pM specific primer (sense/antisense), and 26 μl of RNase free dH2O to 5 μl of total RNA, and then stopped at 94° C. for 2 minutes to conduct DNA synthetic reaction (polymerase chain reaction: PCR). The PCR was conducted under conditions comprising 94° C. 1 minute, 55° C. 45 seconds, 70° C. 60 seconds for 35 cycles, and then, finally the elongation reaction was conducted at 70° C. for 5 minutes to complete the reaction. The resulting PCR product was eluted on 1% agarose gel and observed whether the bands are present near 395 bp and 278 bp on the basis of a size marker.

[6] = Effect on arthritis of the compounds isolated from Harpagophytum procumbens DC (summary statement); details: summary in background text
[7] = test system: iNOS; assay: Inhibition of iNOS expression at the level of transcription through RT-PCR; format: cell-based; details: FIG. 11a; 50 μg/ml; LPS 50 ng/ml
Description: In order to identify the ingredient having an inhibitory activity against COX-II and inducible nitric oxide synthetase (iNOS) as the causal factors of rheumatoid arthritis in the extract used as the effective component of the pharmaceutical composition according to the present invention as in Experiment 6 above, the cells were distributed in T75 flask at the concentration of 10^5 cells, incubated for 7 days and then stimulated for 2 hours by introducing LPS in the flask at the concentration of 50 ng/ml. Then, the extract of the present invention was added so as to make the final concentration of 50 μg/ml. The cells were harvested into a 1.5 ml Eppendorf tube and centrifuged with 15,000 rpm at 4° C. for 15 minutes to remove the supernatant. 200 μl of RNAzol solution was added to the residue followed by addition of 50 μl of chloroform. The cells were lysed by careful pippeting, and then centrifuged with 15,000 rpm at 4° C. for 15 minutes to recover a total RNA, which was then precipitated at 4° C. for 15 minutes by adding the same volume of isopropanol, washed once with 75% ethanol and then dried. The cell lysate was dissolved by adding 20 μl of […] and then warming the mixture at 60° C. for 30 minutes. […]

[8] = test system: edema-induced albino rats; assay: Joint rupture in edema-inhibited albino rats by X-ray analysis; format: in vivo; details: oral 14 days, 75 μg/ml; about 70 days
Description: The respective water extract and organic solvent fractions were orally administered for 14 days at the concentration of 75 μg/ml to investigate their inhibitory effect on edema as in Experiment 1. The test albino rats were anesthetized to take X-ray photograph.

[9] = test system: NO formation in RAW 264.7 cell lines; assay: NO formation in macrophage cells stimulated by lipid polysaccharide; format: cell-based; details: 10 μg/ml; LPS 50 ng/well; Greiss reagent
Description: In order to identify whether the extracts obtained according to the present invention can inhibit the synthesis of nitric oxide (NO) as the potent inducer of inflammation in blood due to edema as above, macrophage RAW 264.7 cell lines were distributed in a 96-well microplate at the concentration of 10^3 cells per well and then incubated for 12 hours. Then, lipid polysaccharide was added to the plate at the concentration of 50 ng/well to stimulate the cells for 2 hours. The respective organic solvent fractions were added to the plate to the final concentration of 10 μg/ml followed by addition of 50 μl of Greiss reagent solution, and then allowed to react together at room temperature. Then, the absorbance of the plate was measured at 540 nm of ELISA (enzyme-linked immunosorbent assay) reader. For comparative analysis, 0.1, 1, 10, 20, 50, 100, 150 μM sodium nitrite as the standard solution were developed with sodium nitroprusside dihydrate (SNP).

[10] = test system: COX-II; assay: Expression of COX-II protein by immunocytochemical analysis in synovial cells; format: cell-based; details: 10 μg/ml
Description: In order to determine whether the compound identified as the effective component of the pharmaceutical composition separated by the present invention induces an inhibitory effect on COX-II of synovial cells in joint portion, 10^4 synovial cells were distributed on 5% DMEM medium supplemented with penicillin/streptomycin in 6-well culture dish containing a slimb over glass, incubated for 24 hours at 37° C., during which the extract of the present invention was added to the concentration of 10 μg/ml to observe the reaction. The waste was removed and then, the cells were washed once with PBS, fixed with methanol and then washed with PBS. The cells were labeled with the primary antibody COX-II and then allowed to stand at 4° C. for about one hour. Then, the cells were labeled with a fluorescence (fluorescein isothiocyanate: FITC) as the secondary antibody, allowed to stand for about one hour while masking from light with foil and then observed under a fluorescence microscope.

[11] = test system: synovial cell lines; assay: Effect on cell cycle of synovial cell lines (flow cytometry); format: cell-based, human; details: 20 μg/ml, LPS 50 ng/ml, propidium iodide flow cytometry
Description: as §1

[12] = test system: CAM formation induced by synovial cells; assay: Angiogenesis of synovial cells in chorioallantoic membrane (CAM) of fertilized egg; details: 10 μg/ml on CAM; compared to control group
Description: In order to determine the effect of the organic solvent fractions obtained in Experiment 1 on the angionenesis of synovial cells using the cells separated in Experiment 2, synovial cells were injected into fertilized egg and then incubated in an incubator at 37° C. for 3 days to observe the formation of chorioallantoic membrane (CAM). In the present state, the fractions separated according to the above method were respectively distributed on CAM at the concentration of 10 μg/ml to observe the degree of CAM decrease.

[13] = test system: nogo-A expressed U-373 MG cell line; assay: Neurite regeneration in nogo-A expressing glioblastoma cells (vertebral neuroparalysis); format: cell-based; details: nogo-A transfected U-373 cells; phase-contrast microscope
Source text: Simultaneously, it was also observed whether neurites can be regenerated by treatment with neuronal growth factor (NGF) or whether the fractions of the present invention can provide the same effect, by taking a photograph with a phase-contrast microscope of 200 magnifications.

| SMILES | effect on cell cycle [1] | induction of apoptosis [2] | induction of apoptosis [3] | edema size after treatment ([4]; Table 3 (best fractions), measured after 70 days, unit not given, in mm) | edema size before treatment ([4]; Table 3 (best fractions), unit not given, in mm) | inhibitory effect on edema [4] | effect on COX-II expression (RT-PCR) ([5]; FIG. 11c, respective fractions) | effect on arthritis [6] | effect on iNOS expression (RT-PCR band near 278 bp) [7] | osteogenesis (X-ray) [8] | rupture of cartilage in arthritic portion (X-ray) [8] | inhibition of NO formation [9] | effect on COX-II expression (RT-PCR) ([5]; FIG. 11a, 50 μg/ml, LPS 50 ng/ml) | COX-II protein expression (immunofluorescence, FITC) [10] | effect on cell cycle [11] | induction of CAM formation (angiogenesis by synovial cells) [12] | neurite pattern (regeneration of neurites) [13] |
| --- | --- | --- | --- | --- | --- | --- | --- | --- | --- | --- | --- | --- | --- | --- | --- | --- | --- |
| OC[C@H]1O[C@H](OC[C@H]2O[C@H](OC[C@H]3O[C@H](O[C@]4(CO)O[C@H](CO)[C@@H](O)[C@@H]4O)[C@H](O)[C@@H](O)[C@@H]3O)[C@H](O)[C@@H](O)[C@H]2O)[C@H](O)[C@@H](O)[C@H]1O [LNE-2, starchyose] | induced G0/G1 arrest | – | – | – | – | – | – | – | – | – | – | – | – | – | – | – | – |
| C[C@]1(OC(=O)/C=C/c2ccccc2)C[C@@H](O)[C@]2(O)C=CO[C@@H](O[C@@H]3O[C@H](CO)[C@@H](O)[C@H](O)[C@H]3O)[C@@H]21 [LNE-1, harpagoside] | – | more strongly inducing the apoptosis | more strongly inducing the apoptosis | 5.1 ± 2 | 15.1 ± 2 | potent inhibitory effect on edema | strongly inhibit the protein expression | moderate pharmacological effect | – | – | – | – | – | – | – | – | – |
| C[C@]1(O)C[C@@H](O)[C@]2(O)C=CO[C@@H](O[C@H]3O[C@H](CO)[C@@H](O)[C@H](O)[C@H]3O)[C@@H]21 [LNE-3, harpagide] | – | more strongly inducing the apoptosis | more strongly inducing the apoptosis | – | – | potent inhibitory effect on edema; also recorded: most significant | strongly inhibit the protein expression | most effective | have an effect on the protein expression | effect of stimulating the osteogenesis | inhibits the rupture of cartilage in arthritic portion | stronger inhibitory effect on NO formation | inhibitory effect at the level of transcription | tendency to greatly decrease the protein expression | induced the apoptosis | more strongly inhibited the induction of CAM formation | neurites were lengthened |
